The values that follow come from publication PMC12490239, “Combining BET inhibition with SMAC mimetics restricts tumor growth and triggers immune surveillance in preclinical cancer models” (Cell Reports Medicine, 2025).

Structures are written as SMILES. Where only a bound is given, the exact number is not on record here.

Holding throughout (assay): cells
Set-up in all cases: CellTiter-Glo 2.0 luminescence proliferation/viability assay, single agents, human tumour cell line panel

Assay [1] has as its system C125PM. As to conditions: 96 h; single agent; read-out: IC50 SMACm. The method in brief: (§1)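 Human tumour cell lines were seeded into assay plates and held at 37°C with 5% CO2 for twenty-four hours, then exposed in triplicate to rising concentrations of the SMAC mimetic, from 4.5 nM to 10 μM, with DMSO as control. After 96 h, viability was read as CellTiter-Glo2.0 luminescence to derive single-agent IC50 values.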

For assay [2], the system named is COLO60H. The settings on record: 96 h; single agent; read-out: IC50 SMACm. In short, it runs like this: as §1
For assay [3], the system named is NCI-H2126. The settings on record: Homo sapiens, NCI-H2126, 96 h; single agent; read-out: IC50 SMACm. The method in brief:
as §1

In assay [4] the test system is SNU1235. As to conditions: 96 h; single agent; read-out: IC50 SMACm. In short, it runs like this:
as §1

Assay [5] concerns LK-2. The settings on record: Homo sapiens, LK-2, 96 h; single agent; read-out: IC50 SMACm. The method in brief:
as §1

The subject of assay [6] is KM12. The settings on record: Homo sapiens, KM12, 96 h; single agent; read-out: IC50 SMACm. The method in brief: as §1
The subject of assay [7] is LS-513. The settings on record: Homo sapiens, LS-513, 96 h; single agent; read-out: IC50 SMACm. In short, it runs like this:
as §1

Assay [8] relates to HT55. The settings on record: Homo sapiens, HT55, 96 h; single agent; read-out: IC50 SMACm. The method in brief: as §1
The subject of assay [9] is SNU-216. The settings on record: SNU-216, 96 h; single agent; read-out: IC50 SMACm. In short, it runs like this:
as §1

The subject of assay [10] is C99. The settings on record: 96 h; single agent; read-out: IC50 SMACm. In short, it runs like this: as §1
The test system of assay [11] is C70. The settings on record: 96 h; single agent; read-out: IC50 SMACm. The method in brief: as §1
Assay [12] has as its system NCI-H358. As to conditions: Homo sapiens, NCI-H358, 96 h; single agent; read-out: IC50 SMACm. The method in brief:
as §1

Assay [13] deals with HUTU-80. The settings on record: Homo sapiens, HuTu80, 96 h; single agent; read-out: IC50 SMACm. In short, it runs like this:
as §1

Assay [14] relates to SW1417. As to conditions: Homo sapiens, SW1417, 96 h; single agent; read-out: IC50 SMACm. In short, it runs like this: as §1
Assay [15] relates to Calu-1. As to conditions: Homo sapiens, Calu-1, 96 h; single agent; read-out: IC50 SMACm. The method in brief: as §1

For the compound `CN[C@@H](C)C(=O)Nc1ccc(-c2c(-c3cccnc3OC)nc3cc(C)ccn23)c(C#Cc2ccc3c(C)nccc3c2)n1` [SMACm, BI 891065], the IC50 (usually the concentration at which inhibition is half-maximal) in assay [1] amounted to 1.26 µM; in [2], 4.37 µM; in assay [3], 6.14 µM; in assay [4] it was 2.14 µM; in assay [5] it was 4.15 µM; in assay [6], 7.46 µM. The IC50 in assay [7] was 5.77 µM; in [8], 5 µM; in assay [9], 4.32 µM; in assay [10], 3.8 µM; in assay [11], 3.31 µM; in [12] it was greater than 10 µM. Also, the IC50 is 3.31 µM in [13], 3.9 µM in assay [14] and 8.41 µM in assay [15].
